According to patent US12661360B2 (Tulex Pharmaceuticals Inc., priority 2023, dated 2026):
≈ marks a conversion by molar mass, not a printed value.

Assay: Solubilities of lamotrigine in various non-aqueous solvents and purified water
Format: physicochemical

For `Nc1nnc(-c2cccc(Cl)c2Cl)c(N)n1` [lamotrigine, 3,5-diamino-6-(2,3-dichlorophenyl)-1,2,4-triazine], the solubility (organic solvent or mixture, solvent Glycerin) was 20.2 mg/mL (≈ 79 mM), the solubility (organic solvent or mixture, solvent PEG 400) was greater than 30 mg/mL and the solubility (organic solvent or mixture, solvent Polypropylene glycol 400) was 10 to 20 mg/mL (≈ 39 to 78.1 mM). It also gave a solubility (organic solvent or mixture, solvent Propylene Glycol) of 40.2 mg/mL (≈ 157 mM) and a solubility (solvent Purified water) of 0.31 mg/mL (≈ 1.21 mM).
